Data: publication PMC7216583 (Parasites & Vectors, 2020)
Structures can show the parent of a compound that is named as a salt.

Assays:
in vitro = settings: human
DHFR = settings: read-out: Ki DHFR; ref library vendor description; cited from earlier work
wild type p110α = system: wild type p110α; parameters: method as in library vendor description; settings: ref library vendor description; cited from earlier work
[1] = system: Toxoplasma gondii RH-2F tachyzoites; settings: preliminary screen, mean
CYP17 = system: CYP17; parameters: method as in library vendor description; settings: ref library vendor description; cited from earlier work
[2] = system: Toxoplasma gondii RH-2F tachyzoites; experiment: microbe, parasite or virus in culture; settings: 72 h, read-out: Parasite inhibition (%) mean, preliminary screen, mean
δ-opioid receptor = molecular target: δ-opioid receptor; parameters: method as in library vendor description; settings: agonist; ref library vendor description; cited from earlier work
VEGFR2 = system: VEGFR2; parameters: method as in library vendor description; settings: ref library vendor description; cited from earlier work
Flk1 = system: Flk1; parameters: method as in library vendor description; settings: ref library vendor description; cited from earlier work
VEGFR1 = system: VEGFR1; parameters: method as in library vendor description; settings: ref library vendor description; cited from earlier work
FGFR1 = system: FGFR1; parameters: method as in library vendor description; settings: ref library vendor description; cited from earlier work
SIRT1 = system: SIRT1; parameters: method as in library vendor description; settings: ref library vendor description; cited from earlier work
Flt4 = system: Flt4; parameters: method as in library vendor description; settings: ref library vendor description; cited from earlier work
AXL = system: AXL; parameters: method as in library vendor description; settings: ref library vendor description; cited from earlier work
c-Kit = system: c-Kit; parameters: method as in library vendor description; settings: ref library vendor description; cited from earlier work
Flt1 = system: Flt1; parameters: method as in library vendor description; settings: ref library vendor description; cited from earlier work
[3] = system: human foreskin fibroblasts (HFFs); settings: human, 72 h
Ret = system: Ret; parameters: method as in library vendor description; settings: ref library vendor description; cited from earlier work
FKBP12 = system: FKBP12; parameters: method as in library vendor description; settings: ref library vendor description; read-out: IC50 mTOR inhibitor of FKBP12; cited from earlier work
Bcl-xL = molecular target: Bcl-xL; parameters: method as in library vendor description; settings: recombinant; ref library vendor description; cited from earlier work
Bcl-2 = molecular target: Bcl-2; parameters: method as in library vendor description; settings: ref library vendor description; cited from earlier work
Mcl-1 = molecular target: Mcl-1; parameters: method as in library vendor description; settings: recombinant; ref library vendor description; cited from earlier work
survivin = system: survivin; parameters: method as in library vendor description; settings: ref library vendor description; cited from earlier work
G551D-CFTR = system: G551D-CFTR; parameters: method as in library vendor description; settings: potentiator; ref library vendor description; cited from earlier work
F508del-CFTR = system: F508del-CFTR; parameters: method as in library vendor description; settings: potentiator; ref library vendor description; cited from earlier work
CDK6/cyclin D2 = system: CDK6/cyclin D2; parameters: method as in library vendor description; settings: ref library vendor description; cited from earlier work
CDK4/cyclin D1 = system: CDK4/cyclin D1; parameters: method as in library vendor description; settings: ref library vendor description; cited from earlier work

For `Nc1nc(=O)c2c(CCc3ccc(C(=O)N[C@H](CCC(=O)O)C(=O)O)cc3)c[nH]c2[nH]1` [Pemetrexed (Alimta)], the viability (in vitro) is given as 84.6% and the Ki (DHFR) is given as 7.2 nM.
In the case of XL147, the IC50 (wild type p110α) is listed as 40 nM and the “Parasite inhibition (%) mean” value [1] is listed as 44.4%.
In the case of `C[C@]12CC[C@H](O)CC1=CC[C@@H]1[C@H]2CC[C@]2(C)C(c3cccnc3)=CC[C@@H]12` [Abiraterone (CB-7598)], the IC50 (CYP17) is listed as 2 nM and the inhibition of growth at 5 µM [2] is listed as 11.2%.
In the case of `CCN(CC)C(=O)c1ccc(C2=CC3(CCNCC3)Oc3cccc(O)c32)cc1` [ADL5859 HCl], the inhibition of growth at 5 µM [2] is given as 1.1% and the Ki (δ-opioid receptor) is given as 0.8 nM.
For `Cc1cc2c(F)c(Oc3ncnn4cc(OC[C@@H](C)OC(=O)[C@H](C)N)c(C)c34)ccc2[nH]1` [Brivanib alaninate (BMS-582664)], the IC50 (VEGFR2) is given as 25 nM, the IC50 (Flk1) is given as 89 nM and the IC50 (VEGFR1) is given as 380 nM. The IC50 (FGFR1) was 148 nM and the inhibition of growth at 5 µM [2] was 7.1%.
For `Cl.O=C(Nc1ccccc1-c1cn2c(CN3CCNCC3)csc2n1)c1cnc2ccccc2n1` [SRT1720], the “EC1.5 SIRT1 activation” value (SIRT1) is listed as “SRT1720 is a selective SIRT1 activator with EC1.5 of 0.16 μM” and the inhibition of growth at 5 µM [2] is listed as 18.3%.
In the case of `COc1cc2nccc(Oc3ccc(NC(=O)C4(C(=O)Nc5ccc(F)cc5)CC4)cc3)c2cc1OC` [XL-184 (Cabozantinib)], the IC50 (Flt4) is given as 6 nM, the IC50 (AXL) is given as […] and the IC50 (c-Kit) is given as […]. The IC50 (Flt1) was 12 nM, the “Host viability (%) mean” value [3] was 50.8% and the IC50 (Ret) was […]. For the same compound, the inhibition of growth at 5 µM [2] was 82.5%.
In the case of `CO[C@H]1C[C@@H]2CC[C@@H](C)[C@@](O)(O2)C(=O)C(=O)N2CCCC[C@H]2C(=O)O[C@H]([C@@H](C)C[C@@H]2CC[C@@H](OCCO)[C@H](OC)C2)CC(=O)[C@H](C)/C=C(\C)[C@H](O)[C@@H](OC)C(=O)[C@H](C)C[C@H](C)/C=C/C=C/C=C/1C` [Everolimus (RAD001)], the IC50 (FKBP12) is given as 1.6 to 2.4 nM and the inhibition of growth at 5 µM [2] is given as 14.5%.
In the case of `CC(C)c1ccccc1Cc1cc(C(=O)Nc2ccc(S(=O)(=O)c3ccccc3C(C)(C)C)cc2)c(O)c(O)c1O` [TW-37], the Ki (Bcl-xL) is given as 1110 nM, the Ki (Bcl-2) is given as 290 nM and the Ki (Mcl-1) is given as 260 nM. For the same compound, the inhibition of growth at 5 µM [2] was 58.9%.
In the case of `COCCn1c2c([n+](Cc3cnccn3)c1C)C(=O)c1ccccc1C2=O` [YM155], the IC50 (survivin) is given as 0.54 nM and the inhibition of growth at 5 µM [2] is given as 15.4%.
In the case of `CC(C)(C)c1cc(C(C)(C)C)c(NC(=O)c2c[nH]c3ccccc3c2=O)cc1O` [Ivacaftor (VX-770)], the EC50 (G551D-CFTR) is given as 100 nM, the EC50 (F508del-CFTR) is given as 25 nM and the inhibition of growth at 5 µM [2] is given as 0.6%.
For `CC(=O)c1c(C)c2cnc(Nc3ccc(N4CCNCC4)cn3)nc2n(C2CCCC2)c1=O` [PD 0332991 (Palbociclib) HCl], the IC50 (CDK6/cyclin D2) is listed as 16 nM, the IC50 (CDK4/cyclin D1) is listed as […] and the inhibition of growth at 5 µM [2] is listed as 0.1%.
